Data published in ChEMBL document CHEMBL6071195, “Oxime Linked Doxorubicin Glycoconjugates Improve the Specific Targeting of Glioblastoma in High-Grade Glioma Therapy” (ACS Med Chem Lett, 2024).
Activity calls are given as the source filed them. The calls are words filed in the database; no cut-off is given here.

What was measured:
T98G [1] = experiment: Induction of DNA damage in human T98G cells at 10 uM incubated for 24 hrs by TUNEL assay; format: functional, cell-based
[2] = Drug uptake in human T98G cells at 10 uM incubated for 8 hrs by DAPI staining based immunofluorescence analysis; format: ADME, cell-based
DNA [3] = experiment: Binding affinity to DNA (unknown origin) assessed as intercalation by measuring hypsochromic shift at 100 uM by UV-Vis absorption spectra; format: nucleic-acid assay
[4] = Drug uptake in human SVG p12 cells at 10 uM incubated for 8 hrs by DAPI staining based immunofluorescence analysis; format: ADME, cell-based; details: svg p12, 8 h
[5] = Stability of compound at pH 2 assessed as drug hydrolysis measured after 72 hrs by HPLC analysis; format: physicochemical; details: buffer, read-out: Drug degradation
T98G [6] = experiment: Induction of apoptosis in human T98G cells assessed as apoptotic rate at 10 uM incubated for 24 hrs by TUNEL assay relative to control; format: functional
DNA [7] = experiment: Binding affinity to DNA (unknown origin) assessed as Stem-Volmer quenching constant by fluorescence spectral analysis; format: nucleic-acid assay
[8] = Stability of compound at pH 7.4 incubated for 72 hrs by HPLC analysis; format: physicochemical; details: buffer, pH 7.4, 72 h
[9] = Drug uptake in human T98G cells assessed as red appearance incubated for 24 hrs by imaging analysis; format: ADME, cell-based
T98G [10] = experiment: Cytotoxicity against human T98G cells assessed as reduction in cell viability at 10 uM glucose deprived for 8 hrs followed by compound addition and measured after 48 hrs by MTT assay relative to control; format: functional, cell-based
[11] = Drug uptake in human A-172 cells at 10 uM incubated for 8 hrs by DAPI staining based immunofluorescence analysis; format: ADME, cell-based; details: a 172, 8 h
A 172 [12] = experiment: Cytotoxicity against human A-172 cells assessed as reduction in cell viability at 10 uM incubated for 24 to 48 hrs by MTT assay; format: functional, cell-based; details: time 24-48 hrs
DNA [13] = experiment: Binding affinity to DNA (unknown origin) assessed as intercalative binding constant (Ka) by UV-Vis absorption spectra; format: nucleic-acid assay
T98G [14] = experiment: Cytotoxicity against human T98G cells assessed as cell viability at 10 uM incubated for 24 hrs by MTT assay relative to control; format: functional
A 172 [15] = experiment: Cytotoxicity against human A-172 cells assessed as reduction in cell viability at 10 uM glucose deprived for 8 hrs followed by compound addition and measured after 24 to 48 hrs by MTT assay relative to control; format: functional, cell-based; details: time 24-48 hrs
A 172 [16] = experiment: Induction of DNA damage in human A-172 cells at 10 uM incubated for 24 hrs by TUNEL assay; format: functional, cell-based
A 172 [17] = experiment: Induction of apoptosis in human A-172 cells assessed as apoptotic rate at 10 uM incubated for 24 hrs by TUNEL assay relative to control; format: functional
[18] = Stability of compound at pH 2 measured after 24 hrs by HPLC analysis; format: physicochemical; details: buffer, pH 2, 24 h
[19] = Stability of compound in T98G GBM cell culture media at pH 6.8 measured after 72 hrs by HPLC analysis; format: physicochemical; details: pH 6.8, 72 h
[20] = Stability of compound at pH 3.5 incubated for 72 hrs by HPLC analysis; format: physicochemical; details: buffer, pH 3.5, 72 h
T98G [21] = experiment: Cytotoxicity against human T98G cells assessed as reduction in cell viability at 10 uM glucose deprived for 8 hrs followed by compound addition and measured after 24 hrs by MTT assay relative to control; format: functional, cell-based
T98G [22] = experiment: Cytotoxicity against human T98G cells assessed as reduction in cell viability at 10 uM incubated for 48 hrs by MTT assay; format: functional, cell-based
[23] = Drug uptake in human A-172 cells assessed as red appearance incubated for 24 hrs by imaging analysis; format: ADME, cell-based; details: a 172, 24 h
[24] = Cytotoxicity against human T98G cells co-cultured with MDCK-II cells transfected with human P-gp assessed as cell viability at 100 uM pretreated for 2 hrs followed by […] cell removal and measured after 48 hrs by MTT assay relative to control; format: functional; details: time 50 hrs, read-out: Activity
A 172 [25] = experiment: Cytotoxicity against human A-172 cells co-cultured with MDCK-II cells transfected with human P-gp assessed as cell viability at 100 uM pretreated for 2 hrs followed by […] cell removal and measured after 48 hrs by MTT assay relative to control; format: functional; details: time 50 hrs, read-out: Activity
[26] = Cytotoxicity against human SVG p12 cells assessed as reduction in cell viability at 10 uM incubated for 24 to 48 hrs by MTT assay; format: toxicity, cell-based; details: svg p12, 10 µM, time 24-48 hrs
[27] = Stability of compound at pH 5.0 incubated for 72 hrs by HPLC analysis; format: physicochemical; details: buffer, pH 5, 72 h

SMILES	Activity (T98G [1])	Drug uptake [2]	Activity (DNA [3])	Drug uptake [4]	degraded at 72 h [5]	Activity (T98G [6])	KSV (DNA [7])	Stability [8]	Drug uptake [9]	Activity (T98G [10])	Drug uptake [11]	Activity (A 172 [12])	K (DNA [13])	Activity (A 172 [15])	Activity (A 172 [16])	Activity (A 172 [17])	Stability [18]	Activity (T98G [21])	viability at 100 µM [24]	viability at 100 µM (A 172 [25])	other results
COc1cccc2c1C(=O)c1c(O)c3c(c(O)c1C2=O)C[C@@](O)(/C(CO)=N\OCC(=O)NCc1cn(C[C@H]2O[C@H](OC)[C@H](O)[C@@H](O)[C@@H]2O)nn1)C[C@@H]3O[C@H]1C[C@H](N)[C@H](O)[C@H](C)O1	Active	Active	Active	Active	49%	116%	3.5 10^5/M	Stable	Active	Active	Active	Active	2.7 10^5/M	Active	Active	202%	Unstable	inactive	62%	58%	viability at 10 µM (T98G [14]; read-out: Activity): 80%; Stability [19]: Stable; Stability [20]: Stable; Activity (T98G [22]): Active; Drug uptake [23]: Active; Activity [26]: Non-Toxic; Stability [27]: Stable
COc1cccc2c1C(=O)c1c(O)c3c(c(O)c1C2=O)C[C@@](O)(/C(CO)=N\OCC(=O)NC[C@H]1O[C@H](OC)[C@H](O)[C@@H](O)[C@@H]1O)C[C@@H]3O[C@H]1C[C@H](N)[C@H](O)[C@H](C)O1	inactive	Not Active	Active	Not Active	46%	inactive	4.4 10^5/M	Stable	Not Active	inactive	Not Active	Active	3.5 10^5/M	Active		32%	Unstable	inactive	76%	129%	Stability [19]: Stable; Stability [20]: Stable; Drug uptake [23]: Not Active; Stability [27]: Stable
COc1cccc2c1C(=O)c1c(O)c3c(c(O)c1C2=O)C[C@@](O)(C(=O)CO)C[C@@H]3O[C@H]1C[C@H](N)[C@H](O)[C@H](C)O1 [DOXORUBICIN]	Active	Active		Active		122%	3.1 10^5/M			Active	Active	Active	3.3 10^5/M	Active	Active	102%		inactive	73%	94%	Activity (T98G [14]): inactive; Activity [26]: Toxic
